Results from paper PMC4818591 (ChemMedChem, 2015).
Like-named read-outs stand apart in the source and are kept apart here.

Key:
Type in all cases: biochemical
HDAC1 = HDAC1 (Homo sapiens, UniProt Q13547); experiment: HDAC1 isozyme inhibition; settings: for SI HDAC1/6: selectivity index
HDAC2 = HDAC2 (Homo sapiens, UniProt Q92769); experiment: HDAC2 isozyme inhibition; settings: for SI HDAC2/6: selectivity index
HDAC3 = HDAC3 (Homo sapiens, UniProt O15379); experiment: HDAC3 isozyme inhibition; settings: for SI HDAC3/6: selectivity index
HDAC10 = biological target: T1, HDAC10 (Homo sapiens, UniProt Q969S8); experiment: HDAC10 isozyme inhibition; settings: for SI HDAC10/6: selectivity index
T1 sequence (Q969S8 1-669): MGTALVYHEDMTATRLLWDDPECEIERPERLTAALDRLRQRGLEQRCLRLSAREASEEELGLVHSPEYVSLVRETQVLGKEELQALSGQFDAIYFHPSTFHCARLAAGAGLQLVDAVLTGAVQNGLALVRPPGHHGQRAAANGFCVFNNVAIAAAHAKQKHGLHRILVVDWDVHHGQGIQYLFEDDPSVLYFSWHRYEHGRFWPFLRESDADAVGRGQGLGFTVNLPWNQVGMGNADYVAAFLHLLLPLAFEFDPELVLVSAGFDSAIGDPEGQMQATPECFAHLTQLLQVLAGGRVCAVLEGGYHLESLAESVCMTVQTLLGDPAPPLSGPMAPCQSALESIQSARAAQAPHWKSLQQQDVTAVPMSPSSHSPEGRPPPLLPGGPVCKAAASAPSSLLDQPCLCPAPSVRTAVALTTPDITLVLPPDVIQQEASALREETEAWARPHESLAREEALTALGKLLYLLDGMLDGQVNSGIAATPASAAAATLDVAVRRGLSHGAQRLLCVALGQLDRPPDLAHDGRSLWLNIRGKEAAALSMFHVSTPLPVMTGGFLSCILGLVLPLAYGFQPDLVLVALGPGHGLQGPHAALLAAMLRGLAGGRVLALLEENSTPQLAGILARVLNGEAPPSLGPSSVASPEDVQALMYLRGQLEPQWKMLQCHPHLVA

HDAC6 = biological target: T2, HDAC6 (Homo sapiens, UniProt Q9UBN7); experiment: HDAC6 isozyme inhibition; settings: for selectivity over HDAC1 and HDAC3: HDAC6 versus HDAC1 and HDAC3; for selectivity over HDAC2 and HDAC10: HDAC6 versus HDAC2 and HDAC10
T2 sequence (Q9UBN7 1-1215): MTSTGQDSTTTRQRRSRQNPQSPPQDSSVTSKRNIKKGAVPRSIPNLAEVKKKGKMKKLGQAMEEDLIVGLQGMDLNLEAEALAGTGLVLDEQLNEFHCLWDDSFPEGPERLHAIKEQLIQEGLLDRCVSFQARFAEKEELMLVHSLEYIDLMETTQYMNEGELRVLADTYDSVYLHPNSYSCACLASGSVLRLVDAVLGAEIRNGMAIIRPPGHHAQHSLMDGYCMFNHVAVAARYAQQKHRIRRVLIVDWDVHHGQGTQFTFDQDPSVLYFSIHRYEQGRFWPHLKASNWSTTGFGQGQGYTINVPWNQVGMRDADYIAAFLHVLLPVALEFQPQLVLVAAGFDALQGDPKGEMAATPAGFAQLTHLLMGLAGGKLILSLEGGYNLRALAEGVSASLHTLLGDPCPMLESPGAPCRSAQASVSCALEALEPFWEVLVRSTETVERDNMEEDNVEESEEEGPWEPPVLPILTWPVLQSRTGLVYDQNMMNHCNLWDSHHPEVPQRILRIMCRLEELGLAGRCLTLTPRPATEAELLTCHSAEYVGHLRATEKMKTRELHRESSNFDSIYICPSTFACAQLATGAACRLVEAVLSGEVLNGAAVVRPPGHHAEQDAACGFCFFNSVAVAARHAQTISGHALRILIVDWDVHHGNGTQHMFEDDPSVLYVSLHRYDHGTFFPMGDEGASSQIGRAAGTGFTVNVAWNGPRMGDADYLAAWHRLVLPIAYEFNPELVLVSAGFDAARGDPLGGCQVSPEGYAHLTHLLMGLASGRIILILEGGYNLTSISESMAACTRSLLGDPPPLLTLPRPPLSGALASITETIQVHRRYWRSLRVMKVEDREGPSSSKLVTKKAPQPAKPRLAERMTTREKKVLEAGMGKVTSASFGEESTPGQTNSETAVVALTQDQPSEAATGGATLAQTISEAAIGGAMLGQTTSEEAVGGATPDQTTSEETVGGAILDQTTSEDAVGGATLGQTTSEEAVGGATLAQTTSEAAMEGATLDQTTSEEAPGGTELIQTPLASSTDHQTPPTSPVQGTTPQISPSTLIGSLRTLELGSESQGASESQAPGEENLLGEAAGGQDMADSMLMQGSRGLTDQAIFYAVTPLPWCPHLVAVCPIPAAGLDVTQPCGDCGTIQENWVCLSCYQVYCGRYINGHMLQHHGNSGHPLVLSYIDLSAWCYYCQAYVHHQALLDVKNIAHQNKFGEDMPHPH

[1] = read-out: HDAC Isoform, IC50, Class I, 1, singlet, 10-dose IC50 mode, 3-fold serial dilution starting at 30 μM, >50000 = no inhibition at 50 μM
[2] = read-out: HDAC Isoform, IC50, Class I, 2, singlet, 10-dose IC50 mode, 3-fold serial dilution starting at 30 μM, >50000 = no inhibition at 50 μM
[3] = read-out: HDAC Isoform, IC50, Class I, 3, singlet, 10-dose IC50 mode, 3-fold serial dilution starting at 30 μM, >50000 = no inhibition at 50 μM
[4] = read-out: HDAC Isoform, IC50, Class II, 6, duplicate, 10-dose IC50 mode, 3-fold serial dilution starting at 30 μM, average ± standard deviation
[5] = read-out: HDAC Isoform, IC50, Class II, 10, singlet, 10-dose IC50 mode, 3-fold serial dilution starting at 30 μM, >50000 = no inhibition at 50 μM

Chain of HDAC3 (O15379 whole entry): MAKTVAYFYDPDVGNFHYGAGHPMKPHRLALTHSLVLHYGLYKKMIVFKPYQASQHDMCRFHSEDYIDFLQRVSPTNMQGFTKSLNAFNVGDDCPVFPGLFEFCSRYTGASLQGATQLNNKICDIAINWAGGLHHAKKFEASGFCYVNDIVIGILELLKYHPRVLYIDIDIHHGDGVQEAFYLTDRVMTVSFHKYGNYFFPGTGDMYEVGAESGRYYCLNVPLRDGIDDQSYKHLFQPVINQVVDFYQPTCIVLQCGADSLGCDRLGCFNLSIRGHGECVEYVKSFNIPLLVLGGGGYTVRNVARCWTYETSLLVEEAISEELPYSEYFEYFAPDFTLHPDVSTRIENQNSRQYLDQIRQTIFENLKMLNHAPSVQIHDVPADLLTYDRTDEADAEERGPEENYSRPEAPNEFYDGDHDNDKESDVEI
Chain of HDAC3 (Q9Y618 395-489 partner limits assumed): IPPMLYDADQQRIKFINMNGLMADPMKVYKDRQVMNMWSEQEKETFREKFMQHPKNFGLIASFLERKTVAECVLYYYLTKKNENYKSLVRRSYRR
Chain of HDAC1 (Q13547 whole entry): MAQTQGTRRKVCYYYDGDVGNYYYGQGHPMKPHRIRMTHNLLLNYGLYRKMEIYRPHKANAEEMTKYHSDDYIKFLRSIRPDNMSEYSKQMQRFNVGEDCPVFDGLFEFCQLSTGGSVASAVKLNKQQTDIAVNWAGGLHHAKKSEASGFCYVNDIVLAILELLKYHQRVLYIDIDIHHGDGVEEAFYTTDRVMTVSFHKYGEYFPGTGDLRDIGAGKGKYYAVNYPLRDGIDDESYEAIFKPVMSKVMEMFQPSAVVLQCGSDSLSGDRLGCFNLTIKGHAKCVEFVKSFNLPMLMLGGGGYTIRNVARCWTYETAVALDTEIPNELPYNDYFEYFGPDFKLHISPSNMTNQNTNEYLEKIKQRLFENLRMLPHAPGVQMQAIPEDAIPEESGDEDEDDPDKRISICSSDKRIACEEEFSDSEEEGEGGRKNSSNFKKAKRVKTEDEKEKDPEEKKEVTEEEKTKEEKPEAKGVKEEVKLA
Chain of HDAC2 (Q92769 whole entry): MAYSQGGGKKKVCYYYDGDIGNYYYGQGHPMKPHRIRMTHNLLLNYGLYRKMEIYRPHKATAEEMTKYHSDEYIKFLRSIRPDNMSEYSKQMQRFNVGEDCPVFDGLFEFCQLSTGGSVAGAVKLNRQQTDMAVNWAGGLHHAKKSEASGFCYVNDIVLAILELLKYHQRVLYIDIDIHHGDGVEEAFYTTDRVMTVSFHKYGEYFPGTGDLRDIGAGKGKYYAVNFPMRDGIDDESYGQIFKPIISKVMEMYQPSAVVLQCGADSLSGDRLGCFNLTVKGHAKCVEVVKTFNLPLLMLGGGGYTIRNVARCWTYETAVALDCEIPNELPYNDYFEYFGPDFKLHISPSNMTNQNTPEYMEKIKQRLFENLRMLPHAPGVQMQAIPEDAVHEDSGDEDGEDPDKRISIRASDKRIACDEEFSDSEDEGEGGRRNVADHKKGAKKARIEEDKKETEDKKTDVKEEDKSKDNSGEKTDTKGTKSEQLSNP

SI HDAC1/6 (HDAC1)	SI HDAC2/6 (HDAC2)	SI HDAC3/6 (HDAC3)	SI HDAC10/6 (HDAC10)	SMILES	other results
666	2360	1600	1050	O=C(Nc1cccc(-c2cc(C(=O)NCCc3cc(C(=O)NO)no3)no2)c1)c1ccccc1 [Compound 12, 5-[3-(Benzoylamino)phenyl]-N-[2-[3-(N-hydroxycarbamoyl)isoxazol-5-yl]ethyl]isoxazole-3-carboxamide]	–
–	–	–	–	CC(C)(C)OC(=O)Nc1cccc(-c2cc(C(=O)NCCc3cc(C(=O)NO)no3)no2)c1 [Compound 7]	IC50 (HDAC1; [1]): > 50 µM; IC50 (HDAC2; [2]): > 50 µM; IC50 (HDAC3; [3]): > 50 µM; IC50 (HDAC6; [4]): 0.0077 ± 0.0008 µM; IC50 (HDAC10; [5]): > 50 µM
–	–	–	1910	CC(C)(C)C(=O)Nc1cccc(-c2cc(C(=O)NCCc3cc(C(=O)NO)no3)no2)c1 [Compound 10, 5-[2-[[5-[3-[(2,2-Dimethylpropionyl)amino]phenyl]isoxazole-3-carbonyl]amino]ethyl]isoxazole-3-carbohydroxyamic Acid]	IC50 (HDAC1; [1]): > 50 µM; IC50 (HDAC2; [2]): > 50 µM; IC50 (HDAC3; [3]): > 50 µM; selectivity index (SI) (HDAC6; HDAC6 over the other isoforms tested): at least 1900; IC50 (HDAC6; [4]): 0.0212 ± 0.0009 µM; IC50 (HDAC10; [5]): 40.1 µM
39	409	51	123	CCOC(=O)Nc1ccc(-c2cc(C(=O)NCCc3cc(C(=O)NO)no3)no2)cc1 [Compound 8, N-[4-[3-[N-[2-[3-(N-Hydroxycarbamoyl)isoxazol-5-yl]ethyl]carbamoyl]isoxazol-5-yl]phenyl]carbamic Acid Ethyl Ester]	–
825	2280	798	37000	O=C(NO)c1ccc(CNC(=O)c2cc(Cn3c4ccccc4c4ccccc43)on2)cc1 [Compound 18, 5-(9H-Carbazol-9-ylmethyl)-N-[4-(hydroxycarbamoyl)benzyl]isoxazole-3-carboxamide]	–
398	140	105	315	Nc1cccc(-c2cc(C(=O)NCCc3cc(C(=O)NO)no3)no2)c1 [Compound 9, 5-(3-Aminophenyl)-N-[2-[3-(N-hydroxycarbamoyl)isoxazol-5-yl]ethyl]isoxazole-3-carboxamide]	–
2817	–	3800	–	CC(C)(C)OC(=O)Nc1ccc(-c2cc(C(=O)NCCc3cc(C(=O)NO)no3)no2)cc1 [Compound 6, N-[4-[3-[N-[2-[3-(N-Hydroxycarbamoyl)isoxazol-5-yl]ethyl]carbamoyl]isoxazol-5-yl]phenyl]carbamic Acid tert-Butyl Ester]	IC50 (HDAC2; [2]): > 50 µM; selectivity for HDAC6 over all other isoforms (HDAC6; Table S1 in the supporting information (not available)): highly selective; IC50 (HDAC10; [5]): > 50 µM
1320	5760	409	9580	CC(C)(C)OC(=O)Nc1ccc(-c2cc(C(=O)NCc3ccc(C(=O)NO)cc3)no2)cc1 [Compound 13, N-[4-[3-[N-[4-(N-Hydroxycarbamoyl)benzyl]carbamoyl]isoxazol-5-yl]phenyl]carbamic Acid tert-Butyl Ester]	selectivity over HDAC1 and HDAC3 (HDAC6): at least 400 fold; selectivity over HDAC2 and HDAC10 (HDAC6): more than 3 orders of magnitude
65	461	40	38	O=C(NO)c1ccc(CNC(=O)c2cc(-c3ccc(NC(=O)C4CCCCC4)cc3)on2)cc1 [Compound 15, 5-[4-[(Cyclohexanecarbonyl)amino]phenyl]-N-[4-(N-hydroxycarbamoyl)benzyl]isoxazole-3-carboxamide]	–
80	333	32	82	CCOC(=O)Nc1cccc(-c2csc(NC(=O)CCc3cc(C(=O)NO)no3)n2)c1 [Compound 5, N-[3-[2-[3-[3-(N-Hydroxycarbamoyl)isoxazol-5-yl]propionylamino]thiazol-4-yl]phenyl]carbamic Acid Ethyl Ester]	–
82	1650	257	73	O=C(NO)c1ccc(CNC(=O)c2cc(-c3cccc(NC(=O)C4CCCCC4)c3)on2)cc1 [Compound 16, 5-[3-[(Cyclohexanecarbonyl)amino]phenyl]-N-[4-(N-hydroxycarbamoyl)benzyl]isoxazole-3-carboxamide]	–
–	–	–	–	O=C(NO)c1cc(CCNC(=O)c2cc(-c3cccc(NC(=O)C4CCCCC4)c3)on2)on1 [Compound 11, 5-[3-[(Cyclohexanecarbonyl)amino]phenyl]-N-[2-[3-(N-hydroxycarbamoyl)isoxazol-5-yl]ethyl]isoxazole-3-carboxamide]	IC50 (HDAC1): > 50 µM; IC50 (HDAC2): > 50 µM; IC50 (HDAC3): > 50 µM; IC50 (HDAC10): > 50 µM
10	28	11	–	CC(C)(C)OC(=O)Nc1ccc(-c2csc(NC(=O)CCCc3cc(C(=O)NO)no3)n2)cc1 [Compound 3, N-[4-[2-[4-[3-(N-Hydroxycarbamoyl)isoxazol-5-yl]butyrylamino]thiazol-4-yl]phenyl]carbamic Acid tert-Butyl Ester]	–
694	2160	1230	4270	CC(C)(C)OC(=O)Nc1cccc(-c2cc(C(=O)NCc3ccc(C(=O)NO)cc3)no2)c1 [Compound 14, N-[3-[3-[N-[4-(N-Hydroxycarbamoyl)benzyl]carbamoyl]isoxazol-5-yl]phenyl]carbamic Acid tert-Butyl Ester]	selectivity over HDAC1 and HDAC3 (HDAC6): at least 400 fold; selectivity over HDAC2 and HDAC10 (HDAC6): more than 3 orders of magnitude
26	–	29	–	O=C(NO)c1cc(Cn2c3ccccc3c3ccccc32)on1 [Compound 17, 5-(Carbazol-9-ylmethyl)isoxazole-3-carbohydroxamic Acid]	IC50 (HDAC1): 38.7 µM; IC50 (HDAC2): > 50 µM; IC50 (HDAC3): 44 µM; IC50 (HDAC6): 1.51 ± 0.065 µM; IC50 (HDAC10): > 50 µM
